The nature of series [1]: in vivo. The conditions noted are these: rat, plasma, ip, 20 mg/kg.
Series [2] in a line: in vivo. As to conditions: rat, plasma, ip, 20 mg/kg. The source holds these as a separate data set.
A short description of series [3]: in vivo. The conditions noted are these: rat, synovial fluid, ip, 20 mg/kg.
The nature of series [4]: in vivo. As to conditions: rat, plasma, ip, 20 mg/kg. This is another data set of the same source.

With `NCCNS(=O)(=O)c1ccc(-c2ccc(CSc3nc4c(c(=O)[nH]3)CCC4)cc2)cc1`, the concentration at 2 h in “in vivo [1]” is 85 µM. For the same molecule, the concentration at 1 h in “in vivo [2]” is 115 µM. Besides, the concentration at 4 h in “in vivo [3]” worked out at 3.27 µM; in the series “in vivo [4]”, 57 µM.

(Values after ChEMBL document CHEMBL5214964 (Bioorg Med Chem Lett, 2022).)
